Laboratory results published in paper PMC5627009, “Cyclotides Isolated from an Ipecac Root Extract Antagonize the Corticotropin Releasing Factor Type 1 Receptor” (Frontiers in Pharmacology, 2017).

Legend:
human CRF1R [1] = biological target: T1, human CRF1R (Homo sapiens, UniProt P34998); assay: CRE luciferase reporter gene assay (CRF1R antagonism/agonism); type: cell-based; conditions: fraction F, relative to the other identified cyclotides
T1 construct: expressed in transfected cells; host or cells: HEK293
T1 sequence (P34998 24-415): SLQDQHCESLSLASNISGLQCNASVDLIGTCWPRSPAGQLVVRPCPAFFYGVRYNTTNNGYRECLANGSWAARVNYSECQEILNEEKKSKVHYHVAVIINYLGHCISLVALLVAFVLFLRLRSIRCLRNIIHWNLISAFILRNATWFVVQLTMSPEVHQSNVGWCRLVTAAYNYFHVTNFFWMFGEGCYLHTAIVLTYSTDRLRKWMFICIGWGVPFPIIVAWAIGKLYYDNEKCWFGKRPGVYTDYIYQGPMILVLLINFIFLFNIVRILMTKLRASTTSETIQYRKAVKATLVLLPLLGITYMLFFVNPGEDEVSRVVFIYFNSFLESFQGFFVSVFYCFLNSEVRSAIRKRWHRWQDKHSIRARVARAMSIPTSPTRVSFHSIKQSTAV
Procedure: The ipecac extract was tested for its modulating effect on CRF1R signaling using a cell-based luciferase reporter assay. HEK293 cells transiently transfected with an C-terminally GFP-tagged human CRF1R and a luciferase-coupled cAMP response element (CRE) were stimulated with varying concentrations of ipecac extract (0.01–50 μg mL^-1) in the presence and absence of 50 nM endogenous corticotropin-releasing factor (CRF) ligand. Concentration-dependent inhibition of receptor signaling was determined by measuring luciferase induction and accounting for the fluorescence of receptor-positive cells. The amount of luminescence of the control samples incubated with hormone alone was defined as 100% efficacy (Figure 1E). The inhibitory potency of the corresponding cyclotide-containing ipecac extract was measured and normalized relative to the efficacy of the control. […] The inhibitory potency of the ipecac extract to antagonize CRF1R signaling was determined as half-maximal concentration (IC50) as 2.0 μg mL^-1 (Figure 1F). […]
After confirming the presence of cyclotides in the ipecac extract, we aimed to isolate the cyclotides responsible for CRF1R antagonism using a bioassay-guided fraction approach. […] All fractions were analyzed by analytical HPLC and MALDI-TOF MS. […] Fractions C and D were determined to contain at least two cyclotides (Figures 4B,C and Supplementary Figure 1). […]

human CRF1R [2] = biological target: T1, human CRF1R; assay: cAMP accumulation assay at CRF1R (LANCE Ultra cAMP); type: cell-based
Procedure: (§1) Receptor-mediated cAMP accumulation was measured in HEK293 cells transiently transfected with the human CRF1R (with C-terminal GFP tag) using the LANCE® Ultra cAMP Detection kit (PerkinElmer, Waltham, MA, United States). To prepare for experiments, HEK293 cells were grown to confluence in a 6-well plate, followed by transfection with 2.5 μg of plasmid DNA per well using the Lipofectamine® 2000 transfection reagent (Thermo Fisher Scientific). After 4–6 h post-transfection, the cell media was replaced, followed by dissociation of cells via trituration and division of the cell suspension to avoid overcrowding over the subsequent 48 h of incubation at 37°C and 5% CO2. On the day of assay, cells were dissociated with phosphate buffered saline- (PBS-)EDTA solution (137 mM NaCl, 2.7 mM KCl, 10 mM Na2HPO4, 1.8 mM KH2PO4, 1 mM EDTA) and re-suspended in stimulation buffer (1.26 mM CaCl2, 0.49 mM MgCl2, 0.41 mM MgSO4, 5.33 mM KCl, 0.44 mM KH2PO4, 4.17 mM NaHCO3, 138 mM NaCl, 0.34 mM Na2HPO4, 5.56 mM D-glucose, 5 mM HEPES, 0.5 mM IBMX, 0.1% BSA; pH 7.4). Stimulation of cAMP accumulation via the human CRF1R and the human V2R used 500 cells and 300 cells (expressing these receptors) per well, respectively, in 384-well white Cellstar® plates (Greiner Bio-One, Kremsmuenster, Austria). Cells were incubated with the respective cognate receptor agonist peptides, in the absence and presence of cyclotide, for 30 min at 23°C in a final volume of 10 μL of stimulation buffer. Termination of cAMP accumulation was performed with the addition of 5 μL of Eu-cAMP tracer solution and 5 μL of ULight-anti-cAMP antibody solution, each prepared in detection buffer, followed by incubation of the plate for 1 h at 23°C with the lid on. After incubation, the plate was read in a Flexstation 3 plate reader (Molecular Devices, Sunnyvale, CA, United States).
Data from cellular assays were analyzed using GraphPad Prism 7.01 (GraphPad Software, San Diego, CA, United States). Concentration-response curve data were fitted to the three-parameter logistic equation to derive estimates of potency (LogIC50, luciferase; LogEC50, cAMP) and efficacy (Emax), relative to the maximal agonist control response. CRF LogEC50 values in the absence and presence of caripe 8 were statistically compared via extra sum-of-squares F test analysis. Other statistical analyses were performed as appropriate using one-way analysis of variance (ANOVA) with Bonferroni’s post-test, and significance taken as p < 0.05.

human V2R = assay: cAMP accumulation assay at vasopressin V2 receptor (LANCE Ultra cAMP); type: cell-based; conditions: HEK293 transiently expressing human V2R, caripe 8 26 nM & 260 nM, 30 min, 23°C, five or more experiments in triplicate, not statistically different (One-way ANOVA)
Procedure: as §1, with “Stimulation of cAMP accumulation via the human CRF1R and the human V2R used 500 cells and 300 cells (expressing these receptors) per well, respectively, in 384-well white Cellstar® plates (Greiner Bio-One, Kremsmuenster, Austria). Cells were incubated with the respective cognate receptor agonist peptides, in the absence and presence of cyclotide, for 30 min at 23°C in a final volume of 10 μL of stimulation buffer. Termination of cAMP accumulation was performed with the addition of 5 μL of Eu-cAMP tracer solution and 5 μL of ULight-anti-cAMP antibody solution, each prepared in detection buffer, followed by incubation of the plate for 1 h at 23°C with the lid on.” left out
Data from cellular assays were analyzed using GraphPad Prism 7.01 (GraphPad Software, San Diego, CA, United States). […]

oxytocin receptor = conditions: ref Koehbach et al. (2013b); cited from earlier work
Source text: (§2) Cyclotides are plant-derived cyclic peptides that are currently of great interest as lead molecules and peptide scaffolds for pharmaceutical drug development ([Thell et al., 2016]; [Craik and Du, 2017]). They were first isolated from O. affinis (Rubiaceae), a plant used as herbal preparation (‘kalata-kalata’) in traditional Congolese medicine for its uterotonic properties ([Gran, 1970]; [Craik et al., 1999]; [Gran et al., 2000]). Evidence-based proof of the plant’s traditional use in childbirth and post-partum care was provided in 2013; [Koehbach et al. (2013b)] isolated the cyclotide kalata B ...

vasopressin V1a receptor = conditions: ref Koehbach et al. (2013b); cited from earlier work
Source text: as §2

Row | Substance | relative effectiveness as inhibitor of CRF1R-mediated luciferase activity (human CRF1R [1]) | fold reduction of CRF potency (human CRF1R [2]; 260 nM caripe 8, CRF concentration-response, HEK293 with human CRF1R, 30 min, 23°C, pH 7.4, six independent experiments in triplicate) | effect on CRF maximal response (human CRF1R [2]; 260 nM caripe 8, CRF concentration-response, six experiments in triplicate) | difference of CRF LogEC50 in absence and presence of caripe 8 (human CRF1R [2]; 260 nM caripe 8, extra sum-of-squares F test, six experiments in triplicate) | inhibition of CRF1R-mediated cAMP response to CRF (human CRF1R [2]; 2.6, 26 and 260 nM cyclotide with an EC50 / approximate EC80 (Fig. 6A) of CRF, 30 min, 23°C, three experiments in triplicate) | effect on cAMP accumulation in combination with submaximal forskolin (human CRF1R [2]; HEK293, human CRF1R, submaximal agonist concentrations of forskolin) | intrinsic activity in the cAMP assay (human CRF1R [2]; HEK293 transiently expressing human CRF1R, cyclotide alone, 30 min, 23°C, pH 7.4) | mode of antagonism at CRF1R (human CRF1R [2]; suggested from modest and limited antagonism) | limit of concentration-dependent inhibition of CRF-mediated cAMP response (data not shown) (human CRF1R [2]; titration with CRF, data not shown) | effect on arginine-vasopressin-stimulated cAMP accumulation (human V2R; AVP 50 pM) | effect on forskolin-stimulated cAMP accumulation (human V2R; forskolin 300 nM) | affinity and potency at oxytocin receptor (oxytocin receptor) | mode of action at oxytocin receptor (oxytocin receptor) | affinity and potency at vasopressin V1a receptor (vasopressin V1a receptor) | mode of action at vasopressin V1a receptor (vasopressin V1a receptor)
1 | GVIPCGESCVFIPCITAAI–GCSCKKKVCYRN (bicyclic or more) [caripe 8, natural bracelet cyclotide isolated from fraction F of ipecac root extract] | the most effective inhibitor | approximately 4.5 fold | lack of effect | significantly different from each other (p < 0.05) | modest concentration-dependent inhibition | no effect | did not exhibit any intrinsic activity | does not interact competitively with the CRF binding site | observed to reach a threshold | not altered | not altered |  |  |  | 
2 | kalata B7 |  |  |  |  |  |  |  |  |  |  |  | moderate affinity and potency (μM-concentration range) | partial agonist | moderate affinity and potency (μM-concentration range) | partial agonist
